The source of these data is patent US12016831B2, “Polidocanol for use as immunomodulating agent” (priority 2018, dated 2024).

The assay concerns patients suffering from venous insufficiency from minor to severe. Put plainly: QoL survey (CIVIQ-20) after 3 or 4 treatments with diluted polidocanol. In kind it is in vivo, human. On the procedure: A commercially available polidocanol solution (Atossisclerol®) was diluted to 0.05% with a physiological saline solution. A 1.4% sodium bicarbonate solution was then added in order to obtain a final concentration of 0.06%. The patients, 80% of which were female between 18 and 82 years of age suffering from venous insufficiency from minor to severe, were subjected to treatment after obtaining their free and informed consent.
Before the treatment, about 100 patients were subjected to a survey in order to assess their quality of life and to evaluate possible variations of the phlogistic/inflammatory overall state, of the venous microcirculation and circulation functionality, and also, more in general, of the skin trophism.
The long term systemic effects were evaluated via a survey given to patients after 3 or 4 treatments with diluted polidocanol.
In particular, they were asked to fill out a survey (CIVIQ-20) according to the criteria defined in Launois R. et al “Construction and validation of a quality of life questionnaire in chronic lower limb venous insufficiency (CIVIQ), Qual. Life Res., 1996, 5(6):539-554.
The survey contained the questions summarized hereinbelow, with answers indexed with values from 0 to 4 (0 if the feeling of discomfort described by the question was not applicable and from 1 to 4 if it was applicable with increasing intensity). Hereinbelow are collected the activities which turned out to be improved after the treatment: • 1) During the last 4 weeks have you felt pain in the hips or legs and with what intensity? In 14% of cases a decrease in hip pain was observed after treatment with polidocanol according to the invention. • 2) During the last 4 weeks have you had troubles in the routine work activities, due to troubles with the lower limbs? In 75% cases the patients could note a better condition during routine work activity • 3) During the last 4 weeks have you had troubles sleeping due to troubles with your legs? With what frequency? 37% better sleeping conditions. No troubles. • 4) During the last 4 weeks have you had troubles in the following activities due to troubles with your legs? • a. Remaining standing for a long time. Improves in 87% • b. Climbing several flights of stairs. • c. Crouching kneeling down. Improves • d. Walking at a brisk pace. • e. Traveling by car, bus, plane. Improves in 85% • f. Performing housekeeping tasks (ironing, walking around in the kitchen, etc.). Improves in 85% • g. Going out at night. Improves in 85% • h. Playing sports • 5) Given that troubles with the legs can also affect moods, it was asked if during the last 4 weeks they had noticed troubles such as: • a. Nervousness • b. Quick fatigue • c. Feeling of oppression • d. Excessive caution • e. Embarrassment in showing off the legs. Improves in 90% • f. Irritability • g. Feeling of being handicapped • h. Morning fatigue. Improves in 95% • i. Not feeling like going out. Improves in 75%.

For the substance Polidocanol [diluted polidocanol], where the note is “CIVIQ-20 question 1, after 3 or 4 treatments”, the “cases with decrease in hip pain” value worked out at 14%. Further, under “CIVIQ-20 question 2”, the “cases with better condition during routine work activity” value is on record as 75%. For the setting “CIVIQ-20 question 3”, this substance showed a better sleeping conditions of 37%. Besides, under “CIVIQ-20 question 4a”, the “Remaining standing for a long time, improves” value is recorded as 87%. Besides, the Crouching kneeling down result (CIVIQ-20 question 4c) is given as “Improves”. For the setting “CIVIQ-20 question 4e”, the “Traveling by car, bus, plane, improves” value worked out at 85%. In addition, the “Performing housekeeping tasks, improves” value (CIVIQ-20 question 4f) stood at 85%. Also, where the note is “CIVIQ-20 question 4g”, the “Going out at night, improves” value was found to be 85%. Further, for the setting “CIVIQ-20 question 5e”, the “Embarrassment in showing off the legs, improves” value is given as 90%. For the same substance, the “Not feeling like going out, improves” value (CIVIQ-20 question 5i) is on record as 75%. Further, where the note is “CIVIQ-20 question 5h”, the “Morning fatigue, improves” value worked out at 95%. Besides, for the setting “answers after vs before treatment”, the “cases with improved quality of life overall” value is reported as 87%.
